According to patent publication US20260007681A1, “INDOLE DERIVATIVES AS ESTROGEN RECEPTOR DEGRADERS” (REGENTS OF THE UNIVERSITY OF MICHIGAN, priority 2022, published 2026):

Assay: Cell growth assay (WST-8) (Compounds B1-B278)
Format: cell-based
Conditions: 96 h; T47D cell line; WST-8, 4 days; read-out: Cell Growth Inhibition in T47D cell line IC50
Experimental: Cell Growth Assay. The cells are seeded at certain concentration (e.g., at 1500/well) in multi-well plates overnight. Cells are subsequently treated with the compounds. A certain period of time (e.g., 4 days) after the compound treatment, 10% WST-8 reagent is added to the culture medium and incubate under certain condiction (e.g., in a CO2 incubator at 37° C. for 2.5 hours). The absorbance is measured on each sample using a microplate reader at certain wavelength (e.g., 450 nm). The relative absorbance is calculated against the vehicle control from three individually repeats.
Cell Growth Assay. The cells were seeded at 1500/well in 96 well plates overnight. One day after the seeding, they were treated with indicated doses of compounds respectively. 4 days after the compound treatment, 10% WST-8 reagent was added to the culture medium and incubate in a CO2 incubator at 37° C. for 2.5 hours. Before reading, the plate was mixed gently on an orbital shaker for one minute to ensure homogeneous distribution of color. The absorbance was measured of each sample using a microplate reader at a wavelength of 450 nm. The relative absorbance was calculated against the vehicle control from three individually repeats.

Structure (SMILES) | IC50 [nM]
C[C@@H]1Cc2c([nH]c3ccccc23)[C@@H](c2cnc(N3CC4(CCC(N5CCN6c7cc8c(cc7OC[C@@H]6C5)C(=O)N(C5CCC(=O)NC5=O)C8)CC4)C3)nc2)N1CC(F)F (stereo partly drawn) [Compound 1B32, 3-((S)-3-(2-(5-((1R,3R)-2-(2,2-difluoroethyl)-3-methyl-2,3,4,9-tetrahydro-1H-pyrido[3,4-b]indol-1-yl)pyrimidin-2-yl)-2-azaspiro[3.5]nonan-7-yl)-8-oxo-1,2,3,4,4a,5,8,10-octahydro-9H-pyrazino[1′,2′:4,5][1,4]oxazino[2,3-f]isoindol-9-yl)piperidine-2,6-dione] | > 10
C[C@@H]1Cc2c([nH]c3ccccc23)[C@@H](c2cnc(N3CC(CCN4CCN5c6cc7c(cc6OC[C@@H]5C4)C(=O)N(C4CCC(=O)NC4=O)C7)C3)nc2)N1CC(F)F (stereo partly drawn) [Compound B131, 3-((S)-3-(2-(1-(5-((1R,3R)-2-(2,2-difluoroethyl)-3-methyl-2,3,4,9-tetrahydro-1H-pyrido[3,4-b]indol-1-yl)pyrimidin-2-yl)azetidin-3-yl)ethyl)-8-oxo-1,2,3,4,4a,5,8,10-octahydro-9H-pyrazino[1,2′:4,5][1,4]oxazino[2,3-f]isoindol-9-yl)piperidine-2,6-dione] | > 10
C[C@@H]1Cc2c([nH]c3ccccc23)[C@@H](c2cnc(N3CC4(CC(CN5CCN6c7cc8c(cc7OC[C@@H]6C5)C(=O)N(C5CCC(=O)NC5=O)C8)C4)C3)nc2)N1CC(F)F (stereo partly drawn) [Compound B133, 3-((S)-3-((2-(5-((1R,3R)-2-(2,2-difluoroethyl)-3-methyl-2,3,4,9-tetrahydro-1H-pyrido[3,4-b]indol-1-yl)pyrimidin-2-yl)-2-azaspiro[3.3]heptan-6-yl)methyl)-8-oxo-1,2,3,4,4a,5,8,10-octahydro-9H-pyrazino[1′,2′:4,5][1,4]oxazino[2,3-f]isoindol-9-yl)piperidine-2,6-dione] | 1 to 10
COc1c2c(cc3c1CN(C1CCC(=O)NC1=O)C3=O)CN(CC(=O)N1CCC3(CC1)CCN(c1ncc([C@@H]4c5[nH]c6ccccc6c5C[C@@H](C)N4CC(F)F)cn1)CC3)C2 (stereo partly drawn) [Compound B134, 3-(6-(2-(9-(5-((1R,3R)-2-(2,2-difluoroethyl)-3-methyl-2,3,4,9-tetrahydro-1H-pyrido[3,4-b]indol-1-yl)pyrimidin-2-yl)-3,9-diazaspiro[5.5]undecan-3-yl)-2-oxoethyl)-4-methoxy-1-oxo-3,5,6,7-tetrahydropyrrolo[3,4-f]isoindol-2(1H)-yl)piperidine-2,6-dione] | < 1
